Values after ≈ are worked out from the molar mass of the structure shown. Values joined by “and” are separate entries in the source; they are usually repeats but may differ in a detail not shown here. Equal entries are not always repeated. Structures can show the parent of a compound that is named as a salt. Where two headings read alike, the source gives them in different places.
Tests used:
P. aeruginosa = settings: for Cluster of the identified "good" permeators: sheet "Good" permeators, all listed compounds are good permeators
Protocol: The measured levels of compound accumulation were analyzed using machine learning to determine which features of the compounds are most important for enabling their cellular accumulation and to determine their optimal values. […] To accentuate the permeability aspect, the accumulation slopes in efflux-deficient and hyperporinated strains were normalized to those in the parental PAO1 strain.
To help visualize the data, we performed a principal component (PC) decomposition of the data.

P. aeruginosa PΔ3 cells = settings: 10-80 µM; for Concentration slopes of accumulation, PΔ3_1 min: 1 min incubation; for Concentration slopes of accumulation, PΔ3_40 min: 40 min incubation;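 for all read-outs here: slope of accumulation versus external concentration fitted as a line through zero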
Protocol: (§1) PAO1-Pore and PΔ3-Pore were grown at 37 °C overnight with shaking at 225 rpm in 50 mM MOPS-M9 (pH 7.2) Minimal Medium supplemented with 1% glycerol[42],[43].
(§2) The next day, cells were sub-cultured (1.5:100) in fresh MOPS-M9 medium and grown for 16 h. The cultures were then split into two flasks and one of them was induced with 0.1 mM IPTG. Cells incubated for additional 4 h until OD600 reached ~ 1.0 and harvested by centrifugation at 3,275xg for 20 min in RT, washed and concentrated 10X in the spent medium. Assays were performed in 96-well plates in a final volume of […]. Cells were incubated with 10, 20, 40, 80 µM of compounds and after 1- and 40-min incubation at RT, 100 µL cell aliquots were collected by vacuum filtration onto 1.0 µm Glass Fiber Type B filters. For no-cell controls, compounds were diluted to 10, 20, 40, 80 µM final concentration in the same medium, incubated for 1 min and 40 min and filtered onto the same plates. The cell loaded and cell-free filters were dried, removed from plates and placed into 100% methanol at -80 °C for at least 10 min. Filter-bound material was extracted by water bath sonication for 1 min. Cell and filter debris were separated by ultracentrifugation at 45,000 rpm (TLA55 rotor, Beckman) for 8 min at 16 °C and the pellet re-extracted with 80% methanol in water by sonication for 15 min followed by ultracentrifugation at the same conditions. Supernatants from two extractions were combined. For the compound quantification, 5 µL of solution was analyzed in triplicate.
(§3) Calibration curves for MS analyses of compounds were generated in the same experiment by mixing compound at increasing concentrations with the sonicated PAO1 cell extracts. […] Azithromycin was used as a positive control in all experiments.
(§4) Samples were processed in positive ion mode. An Eclipse plus C18 Rapid Resolution HD column (1.8 μm, 2.1 × 50 mm, Agilent, USA) was used for separation. The flow rate was 0.6 mL/min using the following gradient: 0 to 1 min (0- 20% ACN), 1 to 4 min (20- 80% ACN), 4 to 5.1 min (80–100% ACN), 5.1 to 6.30 (100% ACN). Solvents contained 0.1% formic acid to promote positive ion formation in the electrospray. […] Data were analyzed using Agilent Masshunter workstation quantitative analysis v. B.10 software.

P. aeruginosa PΔ3 = experiment: microbe, parasite or virus in culture; format: cell-based, Pseudomonas aeruginosa; settings: for MIC: Pseudomonas aeruginosa, read-out: MICs; for MICs: P∆3, MOPS-M9 medium
Protocol: (§5) In all experiments, P. aeruginosa PAO1-Pore (PAO1 attTn7::PLAC-fhuA) and PΔ3-Pore (ΔmexAB ΔmexCD ΔmexXY attTn7::PLAC-fhuA) strains were used[29]. Strains were routinely grown in Luria–Bertani (LB) or MOPS-M9 medium at 37 °C with aeration. MICs shown in Tables 1 and 2 were determined by a two-fold dilution method in LB broth and MOPS-M9 medium, respectively, following the previously described protocol.

P. aeruginosa PAO1-Pore = experiment: MIC by two-fold dilution, hyperporinated PAO1-Pore; format: cell-based, Pseudomonas aeruginosa; settings: for MICs: PAO1-Pore; for MIC: Pseudomonas aeruginosa, PAO1, read-out: MICs
Protocol: as §5

P. aeruginosa PAO1 cells = experiment: LC–MS quantification of intracellular accumulation, PAO1; settings: 10-80 µM; for Concentration slopes of accumulation, PAO1_1 min: 1 min incubation; for Concentration slopes of accumulation, PAO1_40 min: 40 min incubation;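 for all read-outs here: slope of accumulation versus external concentration fitted as a line through zero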
Protocol: as §1, §2, §3, §4

[1] = system: P. aeruginosa PΔ3-Pore cells; experiment: LC–MS quantification of intracellular accumulation, PΔ3-Pore; settings: 10-80 µM; for Concentration slopes of accumulation, PΔ3-Pore_1 min: 1 min incubation; for Concentration slopes of accumulation, PΔ3-Pore_40min: 40 min incubation;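 for all read-outs here: slope of accumulation versus external concentration fitted as a line through zero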
Protocol: as §1, §2, §3, §4

P. aeruginosa PAO1 = experiment: MIC by two-fold dilution, wild type PAO1; format: cell-based, Pseudomonas aeruginosa; settings: PAO1, MOPS-M9 medium, read-out: MICs
Protocol: as §5

P. aeruginosa PΔ3-Pore = experiment: MIC by two-fold dilution, barrierless PΔ3-Pore; format: cell-based, Pseudomonas aeruginosa; settings: for MIC: Pseudomonas aeruginosa, read-out: MICs, P∆3-Pore, MOPS-M9 medium; for MICs: P∆3-Pore
Protocol: as §5

[2] = system: P. aeruginosa PAO1-Pore cells; experiment: LC–MS quantification of intracellular accumulation, PAO1-Pore; settings: 10-80 µM; for Concentration slopes of accumulation, PAO1-Pore_1 min: 1 min incubation; for Concentration slopes of accumulation, PAO1-Pore_40 min: 40 min incubation;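 for all read-outs here: slope of accumulation versus external concentration fitted as a line through zero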
Protocol: as §1, §2, §3, §4

SMILES | Cluster of the identified "good" permeators (P. aeruginosa) | Concentration slopes of accumulation, PΔ3_1 min (P. aeruginosa PΔ3 cells) | Concentration slopes of accumulation, PΔ3_40 min (P. aeruginosa PΔ3 cells) | MIC (P. aeruginosa PΔ3) | MICs (P. aeruginosa PAO1-Pore; LB broth, Table S2) | MIC (P. aeruginosa PAO1-Pore) | Concentration slopes of accumulation, PAO1_1 min (P. aeruginosa PAO1 cells) | Concentration slopes of accumulation, PAO1_40 min (P. aeruginosa PAO1 cells) | Concentration slopes of accumulation, PΔ3-Pore_1 min [1] | Concentration slopes of accumulation, PΔ3-Pore_40min [1] | MIC (P. aeruginosa PAO1; Pseudomonas aeruginosa) | MIC (P. aeruginosa PΔ3-Pore) | MICs (P. aeruginosa PΔ3-Pore; LB broth, Table S2) | Concentration slopes of accumulation, PAO1-Pore_1 min [2] | Concentration slopes of accumulation, PAO1-Pore_40 min [2] | also measured
CCn1cc(C(=O)O)c(=O)c2cc(F)c(N3CCNCC3)cc21 [OU-0000789, Norfloxacin] | 3 | 15.28 | 26.08 | 0.625 µM and 0.2 µg/mL | 1 | 0.2 µM and 0.06 µg/mL | 37.81 | 32.76 | 25.07 | 33.05 | 1.25 µM and 0.4 µg/mL | 0.1 µM and 0.03 µg/mL | 0.0156 | 31.44 | 54.56 | –
CC(C)(C)OC(=O)N1[C@H](CCC2CCCCC2)CNC(=O)[C@@H]1Cc1cc(F)cc(F)c1 [OU-0032510] | 3 | 30.64 | 29.44 | – | – | – | 36.86 | 31.85 | 31.28 | 28.27 | – | – | – | 37.26 | 28.02 | –
CS(=O)(=O)O.C[C@H]1COc2c(C3(N)CC3)c(F)cc3c(=O)c(C(=O)O)cn1c23 [OU-0000627, PAZUFLOXACIN MESYLATE] | 1 | 3.81 | 5.01 | – | 0.25 | – | – | – | 5.45 | 5.72 | – | – | 0.0156 | 5.79 | 7.45 | MICs (P. aeruginosa PΔ3): 0.05 mg/L; MICs (P. aeruginosa PΔ3; listed as Pazufloxacin mesylate): 0.125 µM; MICs (P. aeruginosa PAO1-Pore; MOPS-M9 medium): 0.03 mg/L; MICs (P. aeruginosa PAO1-Pore; MOPS-M9 medium, listed as Pazufloxacin mesylate): 0.0625 µM; MIC (P. aeruginosa PAO1): 0.5 µM; MICs (P. aeruginosa PΔ3-Pore; MOPS-M9 medium): 0.031 μM and 0.01 mg/L
N[C@@H](CC(=O)N1CCn2c(nnc2C(F)(F)F)C1)Cc1cc(F)c(F)cc1F [OU-0000833, Sitagliptin Monophosphate Monohydrate] | 1 | 4.36 | 4.18 | – | – | – | 7.55 | 5.67 | 4.24 | 4.28 | – | – | – | 4.16 | 4.84 | permeator classification (P. aeruginosa): good permeators
CN1C[C@H](C(=O)N[C@]2(C)O[C@@]3(O)[C@@H]4CCCN4C(=O)[C@H](Cc4ccccc4)N3C2=O)C=C2c3cccc4[nH]cc(c34)C[C@H]21 [OU-0000834, Ergotamine Tartrate] | 3 | 8.34 | 13.59 | – | – | – | 15.91 | 12.24 | 20.02 | 15.58 | – | – | – | 17.94 | 20.50 | permeator classification (P. aeruginosa): good permeators
CC(=O)NC[C@H]1CN(c2ccc(N3CCOCC3)c(F)c2)C(=O)O1 [OU-0031508, linezolid] | 3 | 39.20 | 25.30 | 200 µM (≈ 67.5 µg/mL) | 25 | 200 µM (≈ 67.5 µg/mL) | 34.71 | 41.30 | 30.83 | 28.73 | > 200 µM and > 67.5 µg/mL | 25 µM (≈ 8.43 µg/mL) | 12.5 | 12.71 | 26.51 | –
Cc1cc(C)nc(NS(=O)(=O)c2ccc(N)cc2)n1 [OU-0000689, SULFAMETHAZINE] | 1 | 1.31 | 1.35 | 100 µM and 30 µg/mL | – | 50 µM and 15 µg/mL | 1.42 | 1.40 | 1.54 | 1.19 | > 200 µM and > 60.1 µg/mL | 12.5 µM and 3.75 µg/mL | – | 1.53 | 1.05 | –
COc1c(N2CCNC(C)C2)c(F)cc2c(=O)c(C(=O)O)cn(C3CC3)c12 (stereo not shown) [OU-0000623, GATIFLOXACIN] | 1 | 1.11 | 4.13 | 0.5 µM and 0.2 µg/mL | 0.25 | 0.0625 µM and 0.02 µg/mL | 1.47 | 6.10 | 1.90 | 5.45 | 2 µM and 0.8 µg/mL | 0.031 µM and 0.01 µg/mL | 0.0039 | 2.29 | 4.14 | –
C[C@@H]1CN(c2c(F)c(N)c3c(=O)c(C(=O)O)cn(C4CC4)c3c2F)C[C@H](C)N1 [OU-0000617, SPARFLOXACIN] | 4 | 5.48 | 4.11 | 0.5 µM and 0.2 µg/mL | 0.25 | 0.031 µM and 0.01 µg/mL | 4.89 | 5.25 | 4.64 | 10.98 | 2 µM and 0.8 µg/mL | 0.016 µM and 0.01 µg/mL | 0.0039 | 8.17 | 10.82 | –
CC1CN=C(c2ccc(NC(=O)Nc3ccc(C4=NCCN4)cc3)cc2)N1.Cl (stereo not shown) [OU-0001395] | 1 | 8.86 | 5.05 | – | – | – | 3.79 | 6.44 | 1.38 | 4.42 | – | – | – | 2.72 | 7.34 | –
C=CCN1CC(CCCC)N(C(=O)OC(C)(C)C)C(Cc2ccccc2)C1=O (stereo not shown) [OU-0032511] | 1 | 4.08 | 3.52 | – | – | – | – | – | 4.38 | 4.27 | – | – | – | 4.02 | 4.09 | –

From article PMC9114115, “Property space mapping of Pseudomonas aeruginosa permeability to small molecules” (Scientific Reports, 2022)
